The assay concerns the target EAV nsp9 (Equine arteritis virus Bucyrus, UniProt P19811). In words: covalent labelling, tryptic digest and nano-LC-MS/MS.

Chain of EAV nsp9 (P19811 1678-2370): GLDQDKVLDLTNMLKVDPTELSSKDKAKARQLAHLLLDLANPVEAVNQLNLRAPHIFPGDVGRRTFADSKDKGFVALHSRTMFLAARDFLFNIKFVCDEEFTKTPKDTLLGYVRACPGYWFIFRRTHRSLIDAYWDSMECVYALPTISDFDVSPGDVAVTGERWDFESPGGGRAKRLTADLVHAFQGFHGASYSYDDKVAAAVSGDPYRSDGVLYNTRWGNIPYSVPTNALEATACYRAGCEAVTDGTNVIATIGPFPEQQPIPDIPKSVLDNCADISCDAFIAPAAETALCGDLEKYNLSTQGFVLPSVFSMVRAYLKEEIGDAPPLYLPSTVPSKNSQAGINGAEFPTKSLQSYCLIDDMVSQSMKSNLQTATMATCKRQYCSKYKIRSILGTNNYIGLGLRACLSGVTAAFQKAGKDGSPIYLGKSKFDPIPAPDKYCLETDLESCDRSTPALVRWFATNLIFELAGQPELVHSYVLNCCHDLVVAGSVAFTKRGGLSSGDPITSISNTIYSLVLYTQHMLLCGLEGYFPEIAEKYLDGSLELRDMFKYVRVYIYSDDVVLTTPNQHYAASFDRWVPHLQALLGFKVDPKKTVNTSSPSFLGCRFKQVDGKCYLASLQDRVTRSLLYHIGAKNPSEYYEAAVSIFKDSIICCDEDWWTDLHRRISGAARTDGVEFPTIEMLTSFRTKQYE

Consider `Nc1nc2c(ncn2[C@@H]2O[C@H](COC(=O)c3ccc(S(=O)(=O)F)cc3)[C@@H](O)[C@H]2O)c(=O)[nH]1` [FSBG, 5′-(4-fluorosulfonylbenzoyl)guanosine], for which the “covalent labelling, tryptic digest and nano-LC-MS/MS” value is reported as “seven modified peptides representing five distinct nsp9 regions could be assigned”.

The values are drawn from publication PMC4787807 (Nucleic Acids Research, 2015).
